In BindingDB's records for doi:10.3109/14756366.2012.757603 (Sakarya University, 2014) one finds IC50 data, which are given here for eight compounds.

The structures appear in SMILES notation.

One experiment concerns the target Carbonic anhydrase 2 (Homo sapiens, UniProt P00918). Description: In Vitro Inhibition Assay. The procedure:
(§1) For the inhibition studies of sulfonamide, different concentrations of these compounds were added to the enzyme. Activity percentage values of CA for different concentrations of each sulfonamide were determined by regression analysis usingMicrosoft Office 2000 Excel (New York, NY). CA enzyme activity without a sulfonamide solution was accepted to be 100%.

For the next experiment, the target named is Carbonic anhydrase 1 (Homo sapiens, UniProt P00915). Kind of experiment: In Vitro Inhibition Assay. The protocol:
as §1

Carbonic anhydrase 1, sequence (P00915 whole entry): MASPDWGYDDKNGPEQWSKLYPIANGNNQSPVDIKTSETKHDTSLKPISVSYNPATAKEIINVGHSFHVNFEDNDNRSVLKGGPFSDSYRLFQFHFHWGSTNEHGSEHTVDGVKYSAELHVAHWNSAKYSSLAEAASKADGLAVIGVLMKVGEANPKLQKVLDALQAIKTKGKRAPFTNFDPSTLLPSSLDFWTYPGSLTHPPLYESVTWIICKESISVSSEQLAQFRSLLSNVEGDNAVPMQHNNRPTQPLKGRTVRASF

Take `CC1(C)CC(=O)C(=CNc2ccc(S(N)(=O)=O)cc2)C(=O)C1` [4-((4,4-Dimethyl-2,6-dioxocyclohexylidene)methylamino)benzene-sulfonamide (2b)]: the IC50 (as a rule, the concentration needed to halve the response being measured) on Carbonic anhydrase 2 was 6.41 µM; against Carbonic anhydrase 1 it was 2.12 µM.
`NS(=O)(=O)c1ccc(NC=C2C(=O)c3ccccc3C2=O)cc1` [4-((1,3-Dioxo-1H-inden-2(3H)-ylidene)methylamino)benzene-sulfonamide (2g)]: the IC50 against Carbonic anhydrase 2 turned out to be 3.36 µM; against Carbonic anhydrase 1, 3.19 µM.
For the compound `NS(=O)(=O)c1ccc(NC=C2C(=O)NC(=O)NC2=O)cc1` [4-((2,4,6-Trioxo-tetrahydropyrimidin-5(6H)-ylidene)methylamino)benzene-sulfonamide (2f)], the IC50 against Carbonic anhydrase 2 stood at 9.92 µM; at Carbonic anhydrase 1, 10.9 µM.
The corresponding values for `NS(=O)(=O)c1ccc(NC=C2C(=O)CCCC2=O)cc1` [4-((2,6-Dioxocyclohexylidene)methylamino)benzenesulfonamide (2a)] are 4.93 µM and 4.25 µM.
The corresponding values for `CN1C(=O)C(=CNc2ccc(S(N)(=O)=O)cc2)C(=O)N(C)C1=O` [4-((1,3-Dimethyl-2,4,6-trioxo-tetrahydropyrimidin-5(6H)-ylidene)methylamino)benzene-sulfonamide (2e)] are 2.52 µM and 5.2 µM.
For the compound `NS(=O)(=O)c1ccc(NC=C2C(=O)CC(c3ccco3)CC2=O)cc1` (stereo unspecified) [4-((4-(Furan-2-yl)-2,6-dioxocyclohexylidene)methylamino)benzenesulfonamide (2d)], the IC50 on Carbonic anhydrase 2 was found to be 7.21 µM; at Carbonic anhydrase 1, 8.61 µM.
Take `NS(=O)(=O)c1ccc(NC=C2C(=O)CCC2=O)cc1` [4-((2,5-Dioxocyclopentylidene)methylamino)benzenesulfonamide (2h)]: the IC50 at Carbonic anhydrase 2 was found to be 3.36 µM; against Carbonic anhydrase 1, 4.8 µM.
In the case of `CC1(C)OC(=O)C(=CNc2ccc(S(N)(=O)=O)cc2)C(=O)O1` [4-((2,2-Dimethyl-4,6-dioxo-1,3-dioxan-5-ylidene)methylamino)benzene-sulfonamide (2c)], the 50% inhibitory concentration (IC50) stood at 18.6 µM against Carbonic anhydrase 2 and 6.56 µM against Carbonic anhydrase 1.
